EP1026165A1, “O-substituted Hydroxycoumaranone derivatives as antitumor and antimetastatic agents” (Roche Diagnostics GmbH, priority 1999, dated 2000)

Target: uPAR (Homo sapiens, UniProt Q03405)
Assay: BIO-R4 assay (ELISA test): inhibition of uPA binding to its specific receptor uPAR
Conditions: Inhibition of uPA binding to the specific uPAR receptor (BIO-R4); detection at 405 nm
Experimental: The compounds of the invention were tested (ELISA test) as inhibitors of human urokinase (uPA) binding to its specific receptor uPAR mAk (BIO-R4), according to the procedure described in Biol. Chem. Hoppe-Seyler, 376, 587-94 (1995) by Rettenberger et al. The assays are performed in Microtiterplates (96 wells). The following solutions are used: • washing buffer: PBS-buffer (without Mg^2+ and Ca^2+) + 0.05% Tween 20; • incubation buffer (IP): 1% skimmed milk powder in PBS-buffer (without Mg^2+ and Ca^2+); • BIO-R4 solution: 50 ng/well (0.5 µg/ml 100 µl/well) in IP; • uPAR solution: 3 ng/well (30 ng/ml; 100 µl/well) in PBS-buffer (without Mg^2+ and Ca^2+); • blocking solution: 1% skimmed milk powder in washing buffer (dissolved at 37°C); • uPA solution: 0.25 ng/well (5 ng/ml; 50 µl/well) in IP.
Detection solutions (per microtiterplate):
• (1) 6 ml (100 mM Tris-Cl pH 7.2 + 0.15% Tween 80) + 1.5 ml (10 µg) plasminogen in aqua bidest; • (2) 6 ml (100 mM Tris-Cl pH 7.2 + 0.15% Tween 80) + 1.5 ml (7.5 mg) chromozyme PL in aqua bidest. […]
For detection, the following procedure is used: Incubation with 50 µl each of detection solution (1) and (2) at room temperature. After 20 minutes a yellow colour will be visible (the positive control reads an extinction of 1 after 45-60 minutes). The detection is performed at 405 nm (reference is 490 nm) using a Dynatech MR 7000 ELISA reader. […]

Sequence of uPAR (Q03405 23-305 limits assumed): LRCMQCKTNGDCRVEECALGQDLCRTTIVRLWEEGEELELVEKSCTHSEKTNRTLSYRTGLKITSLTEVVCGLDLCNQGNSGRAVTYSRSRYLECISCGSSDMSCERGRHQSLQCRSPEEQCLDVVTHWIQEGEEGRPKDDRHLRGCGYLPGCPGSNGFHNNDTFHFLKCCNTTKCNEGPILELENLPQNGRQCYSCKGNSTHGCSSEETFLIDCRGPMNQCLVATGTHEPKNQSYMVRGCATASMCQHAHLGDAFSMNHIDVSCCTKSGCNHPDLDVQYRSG

| IC50 | Compound |
| --- | --- |
| 1410 nM | CC(C)=C1Oc2cccc(OCc3cccc(CN4CCC(NC(=O)c5ccc(Cl)c(Cl)c5)CC4)c3)c2C1=O [Example 11, 4-{3-[4-(3,4-dichlorobenzamido)piperidinomethyl]phenylmethoxy}-2-isopropylidenecoumaran-3-one] |
| 1790 nM | CC(C)=C1Oc2cccc(OCC#CCN3CCC(NC(=O)c4ccc(Cl)c(S(N)(=O)=O)c4)CC3)c2C1=O [Example 4, 4-{4-[4-(3-aminosulfonyl-4-chlorobenzamido)piperidino]but-2-ynoxy}-2-isopropylidenecoumaran-3-one] |
